# Data from patent US20240415804A1, “METHOD OF TREATING PANCREATIC CANCER” (University of South Florida, priority 2022, published 2024).
# Columns and labels:
# miR-155 = miR-155 gene expression by RT-qPCR in Panc02 cells; format: cell-based, mouse; conditions: API 40 μM, 24 h, vs DMSO vehicle
# Experimental: MiR-155 is known to be overexpressed in different cancers, including PC^21, 23. The inventors first assessed whether apigenin could modulate the expression of miR-155 in PC cells. Murine PC cell lines Panc02 and UN-KC-6141 as well as the human PC cell line MiaPaCa-2 were treated with API (40 μM) or DMSO vehicle for 24 h and the expression of miR-155 was examined using RT-qPCR assay. […] Since API is known to inhibit the growth of cancer cells, including PC cells^39-43, 47-50, the same PC cell lines were treated with API (40 μM) or DMSO (vehicle) for 24 h and examined cell viability using MTT assay. […] Moreover, Panc02 and UN-KC-6141 cells were then treated with API at a dose dependent concentration (10, 20, 30, 40, 50 μM) and detected apoptosis using flow cytometry (Annexin V and PI).
# miR-155 is implicated in the development of pancreatic tumors from pancreatic intraepithelial neoplasia (PanIN) lesions, and is overexpressed in PC^23. The inventors examined whether the depletion of miR-155 modulated PC viability. Murine and human PC cell lines were transfected with miR-155 inhibitor (i.e., MMU-MIR-155-5P/HSA-MIR-155-5P) and scrambled miRNA at a concentration of 100 nM for 24 h and cell viability determined using an MTT assay. The expression of miR-155 was examined using an RT-qPCR assay as well. […]
# PC-bearing mice = conditions: cited from earlier work
# [1] = PC mouse model treated with API, earlier report (ref 12)
# [2] = PC-bearing mice, previous results (ref 12)
compound,measurement,setting,value
"O=c1cc(-c2ccc(O)cc2)oc2cc(O)cc(O)c12 [API, 40,5,7-Trihydroxyflavone, 5,7-Dihydroxy-2-(4-hydroxyphenyl)-4-benzopyrone]",miR-155 gene expression,miR-155,significantly suppressed
same,tumor weights,"PC-bearing mice; PC mice, previous report (refs 12, 55)",decreases
same,intratumoral Treg percentages,PC-bearing mice; [1],significant reduction
same,splenic Treg percentages,PC-bearing mice; [1],significant reduction
same,IFN-γ production from intratumoral CD8+ T cells,PC-bearing mice; [2],increases
same,granzyme B,PC-bearing mice; [2],increases
same,perforin,PC-bearing mice; [2],increases
